Measurements from the OligoGym collection.
Bases are written 5' to 3'; sugars and linkages follow in the same order, as letters with counts (s phosphorothioate, o phosphodiester; PS: all linkages phosphorothioate). C may stand for cytosine or 5-methylcytosine; the collection does not tell. l = locked nucleic acid (LNA); d = 2'-deoxy (DNA)

Target: HIF1A
Experiment: HeLa, 100 nM transfected, 24 h, mean of 3
Details: ASO

Sequence	caspase activation (% of PBS control)
GTTACTGCCTTCTTAC (sugars l5 d8 l1 d1 l1, PS)	457
GTTACTGCCTTCTTAC (sugars l5 d8 l3, PS)	512
GTTACTGCCTTCTTAC (sugars l5 d9 l2, PS)	363
GTTACTGCCTTCTTAC (sugars l5 d10 l1, PS)	284
GTTACTGCCTTCTTAC (sugars lddddddddddldldl, PS)	115
GTTACTGCCTTCTTAC (sugars ldddlddddddddldl, PS)	159
GTTACTGCCTTCTTAC (sugars ldddldddddddlddl, PS)	142
GTTACTGCCTTCTTAC (sugars ldddldddddddldll, PS)	135
GTTACTGCCTTCTTAC (sugars ldddldddddddlldl, PS)	245
GTTACTGCCTTCTTAC (sugars ldddlddddddldddl, PS)	137
GTTACTGCCTTCTTAC (sugars ldddlddddddlddll, PS)	133
GTTACTGCCTTCTTAC (sugars ldddlddddddldldl, PS)	161
GTTACTGCCTTCTTAC (sugars ldddlddddddldlll, PS)	162
GTTACTGCCTTCTTAC (sugars ldddlddddddllddl, PS)	125
GTTACTGCCTTCTTAC (sugars ldddlddddddlldll, PS)	165
GTTACTGCCTTCTTAC (sugars ldddlddddddllldl, PS)	261
GTTACTGCCTTCTTAC (sugars lddldddddddddldl, PS)	121
GTTACTGCCTTCTTAC (sugars lddlddddddddlddl, PS)	112
GTTACTGCCTTCTTAC (sugars lddlddddddddldll, PS)	130
GTTACTGCCTTCTTAC (sugars lddlddddddddlldl, PS)	177
GTTACTGCCTTCTTAC (sugars lddldddddddldddl, PS)	88.6
GTTACTGCCTTCTTAC (sugars lddldddddddlddll, PS)	129
GTTACTGCCTTCTTAC (sugars lddldddddddldldl, PS)	135
GTTACTGCCTTCTTAC (sugars lddldddddddldlll, PS)	154

Sequence	caspase activation (% of PBS control)
GTTACTGCCTTCTTAC (sugars lddldddddddllddl, PS)	135
GTTACTGCCTTCTTAC (sugars lddldddddddlldll, PS)	151
GTTACTGCCTTCTTAC (sugars lddldddddddllldl, PS)	227
GTTACTGCCTTCTTAC (sugars lddllddddddddldl, PS)	246
GTTACTGCCTTCTTAC (sugars lddlldddddddlddl, PS)	229
GTTACTGCCTTCTTAC (sugars lddlldddddddldll, PS)	240
GTTACTGCCTTCTTAC (sugars lddlldddddddlldl, PS)	374
GTTACTGCCTTCTTAC (sugars lddllddddddldddl, PS)	188
GTTACTGCCTTCTTAC (sugars lddllddddddlddll, PS)	218
GTTACTGCCTTCTTAC (sugars lddllddddddldldl, PS)	207
GTTACTGCCTTCTTAC (sugars lddllddddddldlll, PS)	237
GTTACTGCCTTCTTAC (sugars lddllddddddllddl, PS)	268
GTTACTGCCTTCTTAC (sugars lddllddddddlldll, PS)	196
GTTACTGCCTTCTTAC (sugars lddllddddddllldl, PS)	414
GTTACTGCCTTCTTAC (sugars ldlddddddddddldl, PS)	119
GTTACTGCCTTCTTAC (sugars ldldddddddddlddl, PS)	118
GTTACTGCCTTCTTAC (sugars ldldddddddddldll, PS)	112
GTTACTGCCTTCTTAC (sugars ldldddddddddlldl, PS)	165
GTTACTGCCTTCTTAC (sugars ldlddddddddldddl, PS)	115
GTTACTGCCTTCTTAC (sugars ldlddddddddlddll, PS)	130
GTTACTGCCTTCTTAC (sugars ldlddddddddldldl, PS)	145
GTTACTGCCTTCTTAC (sugars ldlddddddddldlll, PS)	155
GTTACTGCCTTCTTAC (sugars ldlddddddddllddl, PS)	158
GTTACTGCCTTCTTAC (sugars ldlddddddddlldll, PS)	135

Sequence	caspase activation (% of PBS control)
GTTACTGCCTTCTTAC (sugars ldlddddddddllldl, PS)	271
GTTACTGCCTTCTTAC (sugars ldldlddddddddddl, PS)	175
GTTACTGCCTTCTTAC (sugars ldldldddddddddll, PS)	151
GTTACTGCCTTCTTAC (sugars ldldlddddddddldl, PS)	201
GTTACTGCCTTCTTAC (sugars ldldlddddddddlll, PS)	214
GTTACTGCCTTCTTAC (sugars ldldldddddddlddl, PS)	220
GTTACTGCCTTCTTAC (sugars ldldldddddddldll, PS)	214
GTTACTGCCTTCTTAC (sugars ldldldddddddlldl, PS)	280
GTTACTGCCTTCTTAC (sugars ldldldddddddllll, PS)	257
GTTACTGCCTTCTTAC (sugars ldldlddddddldddl, PS)	234
GTTACTGCCTTCTTAC (sugars ldldlddddddlddll, PS)	220
GTTACTGCCTTCTTAC (sugars ldldlddddddldldl, PS)	251
GTTACTGCCTTCTTAC (sugars ldldlddddddldlll, PS)	231
GTTACTGCCTTCTTAC (sugars ldldlddddddllddl, PS)	282
GTTACTGCCTTCTTAC (sugars ldldlddddddlldll, PS)	250
GTTACTGCCTTCTTAC (sugars ldldlddddddllldl, PS)	354
GTTACTGCCTTCTTAC (sugars ldldlddddddlllll, PS)	342
GTTACTGCCTTCTTAC (sugars ldlldddddddddldl, PS)	142
GTTACTGCCTTCTTAC (sugars ldllddddddddlddl, PS)	183
GTTACTGCCTTCTTAC (sugars ldllddddddddldll, PS)	181
GTTACTGCCTTCTTAC (sugars ldllddddddddlldl, PS)	192
GTTACTGCCTTCTTAC (sugars ldlldddddddldddl, PS)	213
GTTACTGCCTTCTTAC (sugars ldlldddddddlddll, PS)	191
GTTACTGCCTTCTTAC (sugars ldlldddddddldldl, PS)	187

Sequence	caspase activation (% of PBS control)
GTTACTGCCTTCTTAC (sugars ldlldddddddldlll, PS)	195
GTTACTGCCTTCTTAC (sugars ldlldddddddllddl, PS)	255
GTTACTGCCTTCTTAC (sugars ldlldddddddlldll, PS)	218
GTTACTGCCTTCTTAC (sugars ldlldddddddllldl, PS)	365
GTTACTGCCTTCTTAC (sugars ldlllddddddddldl, PS)	438
GTTACTGCCTTCTTAC (sugars ldllldddddddlddl, PS)	461
GTTACTGCCTTCTTAC (sugars ldllldddddddldll, PS)	387
GTTACTGCCTTCTTAC (sugars ldllldddddddlldl, PS)	470
GTTACTGCCTTCTTAC (sugars ldlllddddddldddl, PS)	453
GTTACTGCCTTCTTAC (sugars ldlllddddddlddll, PS)	425
GTTACTGCCTTCTTAC (sugars ldlllddddddldldl, PS)	438
GTTACTGCCTTCTTAC (sugars ldlllddddddldlll, PS)	427
GTTACTGCCTTCTTAC (sugars ldlllddddddllddl, PS)	499
GTTACTGCCTTCTTAC (sugars ldlllddddddlldll, PS)	410
GTTACTGCCTTCTTAC (sugars ldlllddddddllldl, PS)	639
GTTACTGCCTTCTTAC (sugars lldddddddddldldl, PS)	144
GTTACTGCCTTCTTAC (sugars llddlddddddddldl, PS)	222
GTTACTGCCTTCTTAC (sugars llddldddddddlddl, PS)	197
GTTACTGCCTTCTTAC (sugars llddldddddddldll, PS)	218
GTTACTGCCTTCTTAC (sugars llddldddddddlldl, PS)	330
GTTACTGCCTTCTTAC (sugars llddlddddddldddl, PS)	191
GTTACTGCCTTCTTAC (sugars llddlddddddlddll, PS)	193
GTTACTGCCTTCTTAC (sugars llddlddddddldldl, PS)	235
GTTACTGCCTTCTTAC (sugars llddlddddddldlll, PS)	220
